Measurements from PubChem BioAssay AID226 (DTP/NCI, 2004).
“And” between values parts separate entries of the source, which are not always exact repeats. Equal values may be shown once. Toxic doses and inconclusive results are not listed.

Tested on: B6C3F1 mice, intracerebral ependymoblastoma, median survival T/C
Assay: NCI In Vivo Anticancer Drug Screen. Data for tumor model Ependymoblastoma (intracerebral) in B6C3F1 mice
Conditions: endpoint: median survival time, higher = longer survival
Method: The antitumor activity of compounds was measured in mice bearing transplantable tumors. Survival or tumor size were measured and the results are expressed as the measurement made in the treated group (T) divided by the measurement made in the vehicle treated control group (C). The tumor model used in this assay is Ependymoblastoma (intracerebral) in B6C3F1 mice

[1] = dose: 16.0 mg/kg/injection, schedule: Q01DX005 (ip), vehicle: saline
[2] = dose: 32.0 mg/kg/injection, schedule: Q01DX005 (ip), vehicle: saline
[3] = dose: 64.0 mg/kg/injection, schedule: Q01DX005 (ip), vehicle: saline
[4] = dose: 128.0 mg/kg/injection, schedule: Q01DX005 (ip), vehicle: saline
[5] = dose: 32.0 mg/kg/injection, schedule: Q01DX005 (ip), vehicle: saline with Tween-80
[6] = dose: 256.0 mg/kg/injection, schedule: Q01DX005 (ip), vehicle: saline with Tween-80
[7] = dose: 100.0 mg/kg/injection, schedule: Q01DX005 (ip), vehicle: saline with Tween-80

In the case of `COc1cc2cc3c4cc(OC)c(OC)cc4cc[n+]3c(C)c2cc1OC` (tested in a mixture with another compound), the T/C [1] was 94 % of control and 98 % of control and 111 % of control, the T/C [2] was 100 % of control (2×) and 120 % of control and the T/C [3] was 102 % of control and 105 % of control and 118 % of control. For the same molecule, the T/C [4] was 104 % of control and 109 % of control and the T/C (dose: 256.0 mg/kg/injection, schedule: Q01DX005 (ip), vehicle: saline) was 106 % of control.
For `NC(CO)(CO)CO`, the T/C (dose: 200.0 mg/kg/injection, schedule: Q01DX005 (ip), vehicle: saline) was 98 % of control, the T/C (dose: 400.0 mg/kg/injection, schedule: Q01DX005 (ip), vehicle: saline) was 110 % of control and the T/C (dose: 800.0 mg/kg/injection, schedule: Q01DX005 (ip), vehicle: saline) was 105 % of control. The T/C (dose: 1600.0 mg/kg/injection, schedule: Q01DX005 (ip), vehicle: saline) was 110 % of control.
With `O=c1[nH]c(=O)n([C@H]2CCCO2)cc1F` the T/C (dose: 8.0 mg/kg/injection, schedule: Q01DX005 (ip), vehicle: saline with Tween-80) was 98 % of control and 100 % of control, the T/C (dose: 8.0 mg/kg/injection, schedule: Q01DX005 (ip), vehicle: saline) was 92 % of control and the T/C (dose: 16.0 mg/kg/injection, schedule: Q01DX005 (ip), vehicle: saline with Tween-80) was 93 % of control and 104 % of control. The T/C [1] was 91 % of control, the T/C [5] was 106 % of control and 109 % of control and the T/C [2] was 92 % of control and 96 % of control. The T/C (dose: 64.0 mg/kg/injection, schedule: Q01DX005 (ip), vehicle: saline with Tween-80) was 104 % of control and 105 % of control, the T/C [3] was 93 % of control and 103 % of control and the T/C (dose: 128.0 mg/kg/injection, schedule: Q01DX005 (ip), vehicle: saline with Tween-80) was 100 % of control and 119 % of control. For the same molecule, the T/C [4] was 93 % of control and 110 % of control and the T/C [6] was 124 % of control.
With `CN(C)N=Nc1ccc([N+](=O)[O-])cc1C(N)=O` the T/C [5] was 112 % of control, the T/C [6] was 167 % of control and the T/C (dose: 512.0 mg/kg/injection, schedule: Q01DX005 (ip), vehicle: saline with Tween-80) was 150 % of control.
`O=P1(N(CCCl)CCCl)NCCCO1` (stereo not given) was tested, and the T/C (dose: 40.0 mg/kg/injection, schedule: Q01DX001 (ip), vehicle: saline) was 109 % of control and the T/C (dose: 320.0 mg/kg/injection, schedule: Q01DX001 (ip), vehicle: saline) was 163 % of control.
In the case of `O=C1NC(c2ccc(Cl)cc2)(c2ccc(Cl)cc2)C(=O)N1Cl`, the T/C (dose: 1.56 mg/kg/injection, schedule: Q01DX009 (ip), vehicle: saline with Tween-80) was 102 % of control, the T/C (dose: 3.13 mg/kg/injection, schedule: Q01DX009 (ip), vehicle: saline with Tween-80) was 105 % of control and the T/C (dose: 6.25 mg/kg/injection, schedule: Q01DX009 (ip), vehicle: saline with Tween-80) was 102 % of control. For the same molecule, the T/C (dose: 12.5 mg/kg/injection, schedule: Q01DX009 (ip), vehicle: saline with Tween-80) was 101 % of control and 104 % of control, the T/C (dose: 25.0 mg/kg/injection, schedule: Q01DX009 (ip), vehicle: saline with Tween-80) was 95 % of control and 99 % of control and the T/C (dose: 50.0 mg/kg/injection, schedule: Q01DX009 (ip), vehicle: saline with Tween-80) was 101 % of control.
For `O=C1C(=O)c2ccccc2C(O)=C1CC=C(Cl)Cl`, the T/C (dose: 10.0 mg/kg/injection, schedule: Q01DX005 (ip), vehicle: Klucel (hydroxypropylcellulose) (HPC)) was 100 % of control and 103 % of control, the T/C (dose: 20.0 mg/kg/injection, schedule: Q01DX005 (ip), vehicle: Klucel (hydroxypropylcellulose) (HPC)) was 96 % of control and 98 % of control and the T/C (dose: 40.0 mg/kg/injection, schedule: Q01DX005 (ip), vehicle: Klucel (hydroxypropylcellulose) (HPC)) was 103 % of control and 89 % of control. For the same molecule, the T/C (dose: 80.0 mg/kg/injection, schedule: Q01DX005 (ip), vehicle: Klucel (hydroxypropylcellulose) (HPC)) was 96 % of control and 103 % of control.
With `COCC(O)Cn1ccnc1[N+](=O)[O-]` (stereo not given) the T/C (dose: 32.0 mg/kg/injection, schedule: Q01DX005 (ip), vehicle: Klucel (hydroxypropylcellulose) (HPC)) was 97 % of control, the T/C (dose: 64.0 mg/kg/injection, schedule: Q01DX005 (ip), vehicle: Klucel (hydroxypropylcellulose) (HPC)) was 96 % of control and the T/C [7] was 97 % of control and 111 % of control. For the same molecule, the T/C (dose: 100.0 mg/kg/injection, schedule: Q01DX009 (ip), vehicle: saline with Tween-80) was 91 % of control and 112 % of control, the T/C (dose: 100.0 mg/kg/injection, schedule: Q12HX010 (ip), vehicle: saline with Tween-80) was 109 % of control and the T/C (dose: 100.0 mg/kg/injection, schedule: Q#A X010 (ip), vehicle: saline with Tween-80) was 167 % of control. The T/C (dose: 100.0 mg/kg/injection, schedule: Q#ADX018 (ip), vehicle: saline with Tween-80) was 86 % of control, the T/C (dose: 128.0 mg/kg/injection, schedule: Q01DX005 (ip), vehicle: Klucel (hydroxypropylcellulose) (HPC)) was 93 % of control and the T/C (dose: 200.0 mg/kg/injection, schedule: Q01DX005 (ip), vehicle: saline with Tween-80) was 106 % of control and 88 % of control. The T/C (dose: 200.0 mg/kg/injection, schedule: Q01DX009 (ip), vehicle: saline with Tween-80) was 94 % of control and 107 % of control, the T/C (dose: 200.0 mg/kg/injection, schedule: Q12HX010 (ip), vehicle: saline with Tween-80) was 118 % of control and the T/C (dose: 200.0 mg/kg/injection, schedule: Q#A X010 (ip), vehicle: saline with Tween-80) was 172 % of control. The T/C (dose: 200.0 mg/kg/injection, schedule: Q#ADX018 (ip), vehicle: saline with Tween-80) was 94 % of control, the T/C (dose: 256.0 mg/kg/injection, schedule: Q01DX005 (ip), vehicle: Klucel (hydroxypropylcellulose) (HPC)) was 92 % of control and the T/C (dose: 400.0 mg/kg/injection, schedule: Q01DX005 (ip), vehicle: saline with Tween-80) was 92 % of control and 105 % of control. The T/C (dose: 400.0 mg/kg/injection, schedule: Q01DX009 (ip), vehicle: saline with Tween-80) was 96 % of control and 98 % of control, the T/C (dose: 400.0 mg/kg/injection, schedule: Q12HX010 (ip), vehicle: saline with Tween-80) was 117 % of control and the T/C (dose: 400.0 mg/kg/injection, schedule: Q#A X010 (ip), vehicle: saline with Tween-80) was 167 % of control. For the same molecule, the T/C (dose: 400.0 mg/kg/injection, schedule: Q#ADX018 (ip), vehicle: saline with Tween-80) was 100 % of control, the T/C (dose: 512.0 mg/kg/injection, schedule: Q01DX005 (ip), vehicle: Klucel (hydroxypropylcellulose) (HPC)) was 96 % of control and the T/C (dose: 800.0 mg/kg/injection, schedule: Q01DX005 (ip), vehicle: saline with Tween-80) was 101 % of control. For the same molecule, the T/C (dose: 800.0 mg/kg/injection, schedule: Q01DX009 (ip), vehicle: saline with Tween-80) was 103 % of control and 104 % of control, the T/C (dose: 800.0 mg/kg/injection, schedule: Q12HX010 (ip), vehicle: saline with Tween-80) was 99 % of control and the T/C (dose: 800.0 mg/kg/injection, schedule: Q#A X010 (ip), vehicle: saline with Tween-80) was 165 % of control. For the same molecule, the T/C (dose: 800.0 mg/kg/injection, schedule: Q#ADX018 (ip), vehicle: saline with Tween-80) was 94 % of control.
`CSCS(=O)C[C@H](CO)NC(=O)/C=C/c1c(C)[nH]c(=O)[nH]c1=O` (stereo not given in full) was tested, and the T/C (dose: 0.06 mg/kg/injection, schedule: Q01DX005 (ip), vehicle: Klucel (hydroxypropylcellulose) (HPC)) was 105 % of control, the T/C (dose: 0.12 mg/kg/injection, schedule: Q01DX001 (ip), vehicle: Klucel (hydroxypropylcellulose) (HPC)) was 102 % of control and 104 % of control and 107 % of control and the T/C (dose: 0.12 mg/kg/injection, schedule: Q01DX005 (ip), vehicle: Klucel (hydroxypropylcellulose) (HPC)) was 100 % of control. For the same molecule, the T/C (dose: 0.25 mg/kg/injection, schedule: Q01DX001 (ip), vehicle: Klucel (hydroxypropylcellulose) (HPC)) was 101 % of control and 102 % of control and 112 % of control, the T/C (dose: 0.25 mg/kg/injection, schedule: Q01DX005 (ip), vehicle: Klucel (hydroxypropylcellulose) (HPC)) was 105 % of control and the T/C (dose: 0.5 mg/kg/injection, schedule: Q01DX001 (ip), vehicle: Klucel (hydroxypropylcellulose) (HPC)) was 97 % of control and 103 % of control and 109 % of control. For the same molecule, the T/C (dose: 0.5 mg/kg/injection, schedule: Q01DX005 (ip), vehicle: Klucel (hydroxypropylcellulose) (HPC)) was 102 % of control and the T/C (dose: 1.0 mg/kg/injection, schedule: Q01DX001 (ip), vehicle: Klucel (hydroxypropylcellulose) (HPC)) was 96 % of control and 97 % of control and 102 % of control.
For `Nc1ccc(S(=O)(=O)c2ccc(N)cc2)cc1`, the T/C (dose: 25.0 mg/kg/injection, schedule: Q01DX005 (ip), vehicle: saline with Tween-80) was 122 % of control, the T/C (dose: 50.0 mg/kg/injection, schedule: Q01DX005 (ip), vehicle: saline with Tween-80) was 100 % of control and the T/C [7] was 108 % of control.
With `C=CCSc1ncnc2c1ncn2C1OC(CO)C(O)C1O` (stereo not given) the T/C (dose: 37.5 mg/kg/injection, schedule: Q01DX005 (ip), vehicle: saline with Tween-80) was 98 % of control, the T/C (dose: 75.0 mg/kg/injection, schedule: Q01DX005 (ip), vehicle: saline with Tween-80) was 114 % of control and the T/C (dose: 150.0 mg/kg/injection, schedule: Q01DX005 (ip), vehicle: saline with Tween-80) was 120 % of control. The T/C (dose: 300.0 mg/kg/injection, schedule: Q01DX005 (ip), vehicle: saline with Tween-80) was 106 % of control.
